{
  "source": "patent US20220202905A1",
  "about": "“COMPOSITION FOR PREVENTING OR TREATING NEUROTROPHIC KERATITIS WHICH CONTAINS PACAP PEPTIDE OR STABILIZED PACAP PEPTIDE” (SENJU PHARMACEUTICAL CO., LTD., priority 2019, published 2022)",
  "molecules": {"B1": {"name": "Peptide 34 (peptide)", "peptide": "Ac-HS[Ala(1H-tetrazol-5-yl)]AIFT[Ala(1H-tetrazol-5-yl)]SYSRYRKAAAVKKYLAAVL-NH2", "SMILES": "CC[C@H](C)[C@H](NC(=O)[C@H](C)NC(=O)[C@H](Cc1nnn[nH]1)NC(=O)[C@H](CO)NC(=O)[C@H](Cc1c[nH]cn1)NC(C)=O)C(=O)N[C@@H](Cc1ccccc1)C(=O)N[C@H](C(=O)N[C@@H](Cc1nnn[nH]1)C(=O)N[C@@H](CO)C(=O)N[C@@H](Cc1ccc(O)cc1)C(=O)N[C@@H](CO)C(=O)N[C@@H](CCCNC(=N)N)C(=O)N[C@@H](Cc1ccc(O)cc1)C(=O)N[C@@H](CCCNC(=N)N)C(=O)N[C@@H](CCCCN)C(=O)N[C@@H](C)C(=O)N[C@@H](C)C(=O)N[C@@H](C)C(=O)N[C@H](C(=O)N[C@@H](CCCCN)C(=O)N[C@@H](CCCCN)C(=O)N[C@@H](Cc1ccc(O)cc1)C(=O)N[C@@H](CC(C)C)C(=O)N[C@@H](C)C(=O)N[C@@H](C)C(=O)N[C@H](C(=O)N[C@@H](CC(C)C)C(N)=O)C(C)C)C(C)C)[C@@H](C)O"}},
  "key": {"PAC1R": {"target": "T1, PAC1R (Homo sapiens, UniProt P41586)", "T1 construct": "host or cells: CHO-K1", "T1 sequence (P41586 21-468)": "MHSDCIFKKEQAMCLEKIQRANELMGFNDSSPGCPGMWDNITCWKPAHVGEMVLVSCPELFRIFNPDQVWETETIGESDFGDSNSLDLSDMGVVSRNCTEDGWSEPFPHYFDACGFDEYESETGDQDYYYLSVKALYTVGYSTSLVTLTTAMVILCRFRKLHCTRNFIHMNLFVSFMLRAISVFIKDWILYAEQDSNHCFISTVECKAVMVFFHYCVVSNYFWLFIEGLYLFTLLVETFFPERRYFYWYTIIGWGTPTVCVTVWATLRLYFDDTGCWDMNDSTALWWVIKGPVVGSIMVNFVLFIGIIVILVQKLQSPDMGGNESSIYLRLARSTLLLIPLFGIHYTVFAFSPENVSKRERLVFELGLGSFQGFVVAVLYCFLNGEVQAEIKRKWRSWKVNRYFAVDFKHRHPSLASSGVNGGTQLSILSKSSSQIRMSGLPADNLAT", "assay": "cAMP assay in PAC1R high-expressing CHO-K1 cell line", "format": "cell-based", "settings": "cAMP inducing effect, CHO-K1 PAC1R high-expressing cells", "protocol": "(§1) The cells were cultured for 18 to 24 hours at 37° C. in a 5% C02 incubator, adhering the cells to the plate. […] A 5-fold dilution series was then prepared with the same Cell assay buffer and used in an assay. The cAMP assay was carried out using a Hit Hunter cAMP Assay for Biologics kit (product of DiscoveRx, Cat. No. 90-0075LM25), according to the included kit instructions. […] Next, the culture medium was removed from the CHO-K1 cell culture plate, washing was performed with PBS, and the peptide-cAMP antibody liquid mixtures were added to the cells and incubated for 30 minutes under a 5% CO2 atmosphere at 37° C. A working detection solution was then added and the culture plate was shielded from light with aluminum foil and incubated at 25° C. for 1 hour. After incubation, Solution A was added and the culture plate was shielded from light with aluminum foil and then incubated at 25° C. for 3 hours. […] The obtained value for the Relative Luminescence Unit (RLU) was analyzed with GraphPad Prism Ver 6.05 (product of Graph Pad) and the EC50 value was calculated for each peptide. […] FIG. 2 and Table 11. […] A 5-fold dilution series was then prepared with the same Cell assay buffer and used in an assay. […] A 5-fold dilution series was then prepared with the same Cell assay buffer and used in an assay."}, "[1]": {"assay": "Peptide stability test, Tris buffer (pH 7.0), 60° C. storage, HPLC remaining rate", "format": "physicochemical", "settings": "Table 7; 100 μM in Tris buffer pH 7.0", "in_short": "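Peptides at 100 μM in Tris buffer (pH 7.0) stored 1 or 2 weeks at 60° C.; unstored sample kept at −30° C. as initial reference. Remaining peptide quantified by reversed-phase HPLC at 220 nm (formic acid/acetonitrile gradient, 40° C. column), as water-corrected remaining rate.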"}, "VPAC1R": {"target": "T2, VPAC1R (Homo sapiens, UniProt P32241)", "T2 construct": "host or cells: CHO-K1", "T2 sequence (P32241 31-457)": "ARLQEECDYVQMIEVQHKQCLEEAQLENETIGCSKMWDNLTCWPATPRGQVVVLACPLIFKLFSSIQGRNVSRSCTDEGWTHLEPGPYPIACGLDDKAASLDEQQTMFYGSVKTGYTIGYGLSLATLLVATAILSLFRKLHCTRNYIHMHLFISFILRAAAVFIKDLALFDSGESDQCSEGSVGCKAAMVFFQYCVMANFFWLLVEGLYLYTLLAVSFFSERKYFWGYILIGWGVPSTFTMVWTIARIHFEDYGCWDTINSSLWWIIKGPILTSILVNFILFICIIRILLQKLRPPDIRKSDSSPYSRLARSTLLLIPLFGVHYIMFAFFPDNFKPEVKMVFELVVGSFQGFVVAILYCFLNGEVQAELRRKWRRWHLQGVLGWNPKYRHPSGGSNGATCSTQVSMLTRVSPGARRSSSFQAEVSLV", "assay": "cAMP assay in VPAC1R high-expressing CHO-K1 cell line", "format": "cell-based", "settings": "Table 12; cAMP inducing effect, CHO-K1 VPAC1R high-expressing cells", "protocol": "as §1"}, "VPAC1 receptor": {"target": "T3, VPAC1 receptor (UniProt P32241 31-457, limits assumed)", "T3 sequence (looked up)": "T2 sequence (P32241 31-457)", "assay": "cell-based or functional assay"}, "PAC1 receptor": {"target": "T4, PAC1 receptor (UniProt P41586 21-468, limits assumed)", "T4 sequence (looked up)": "T1 sequence (P41586 21-468)", "assay": "cell-based or functional assay"}},
  "note": "Numbered stars: 1 amine (or outer) side, 2 acyl side, 3 side chain; on linkers, the order of the positions; unused ones are H or OH. Square brackets hold non-standard residues; d marks the D form. Peptide text beside a SMILES is read from it. Ala(1H-tetrazol-5-yl) = N[C@@H](Cc1nnn[nH]1)C(=O)O; X1 = O=C([C@H](CCc1nnn[nH]1)N[*:1])[*:2]; Nle = CCCC[C@H](N)C(=O)O",
  "data": [
    {"molecule": "CCCC[C@H](NC(=O)[C@H](CCC(N)=O)NC(=O)[C@H](CCCCN)NC(=O)[C@H](CCCNC(=N)N)NC(=O)[C@H](Cc1ccc(O)cc1)NC(=O)[C@H](CCCNC(=N)N)NC(=O)[C@H](CO)NC(=O)[C@H](Cc1ccc(O)cc1)NC(=O)[C@H](CO)NC(=O)[C@H](Cc1nnn[nH]1)NC(=O)[C@@H](NC(=O)[C@H](Cc1ccccc1)NC(=O)[C@@H](NC(=O)CNC(=O)[C@H](Cc1nnn[nH]1)NC(=O)[C@H](CO)NC(=O)[C@@H](N)Cc1c[nH]cn1)[C@@H](C)CC)[C@@H](C)O)C(=O)N[C@@H](C)C(=O)N[C@H](C(=O)N[C@@H](CCCCN)C(=O)N[C@@H](CCCCN)C(=O)N[C@@H](Cc1ccc(O)cc1)C(=O)N[C@@H](CC(C)C)C(=O)N[C@@H](C)C(=O)N[C@@H](C)C(=O)N[C@H](C(=O)N[C@@H](CC(C)C)C(N)=O)C(C)C)C(C)C", "note": "[Peptide 6] (H-HS[Ala(1H-tetrazol-5-yl)]GIFT[Ala(1H-tetrazol-5-yl)]SYSRYRKQ[Nle]AVKKYLAAVL-NH2)", "values": [
      {"measurement": "EC50", "setting": "PAC1R; Table 11", "result": 0.079, "unit": "nM"}
    ]},
    {"molecule": "CC[C@H](C)[C@H](NC(=O)CNC(=O)[C@H](Cc1nnn[nH]1)NC(=O)[C@H](CO)NC(=O)[C@H](Cc1c[nH]cn1)NC(C)=O)C(=O)N[C@@H](Cc1ccccc1)C(=O)N[C@H](C(=O)N[C@@H](Cc1nnn[nH]1)C(=O)N[C@@H](CO)C(=O)N[C@@H](Cc1ccc(O)cc1)C(=O)N[C@@H](CO)C(=O)N[C@@H](CCCNC(=N)N)C(=O)N[C@@H](Cc1ccc(O)cc1)C(=O)N[C@@H](CCCNC(=N)N)C(=O)N[C@@H](CCCCN)C(=O)N[C@@H](CCc1nnn[nH]1)C(=O)N[C@@H](CC(C)C)C(=O)N[C@@H](C)C(=O)N[C@H](C(=O)N[C@@H](CCCCN)C(=O)N[C@@H](CCCCN)C(=O)N[C@@H](Cc1ccc(O)cc1)C(=O)N[C@@H](CC(C)C)C(=O)N[C@@H](C)C(=O)N[C@@H](C)C(=O)N[C@H](C(=O)N[C@@H](CC(C)C)C(N)=O)C(C)C)C(C)C)[C@@H](C)O", "note": "[Peptide 13] (Ac-HS[Ala(1H-tetrazol-5-yl)]GIFT[Ala(1H-tetrazol-5-yl)]SYSRYRK[X1]LAVKKYLAAVL-NH2)", "values": [
      {"measurement": "remaining rate after correction for water, 60° C., 1 week preservation", "setting": "[1]", "result": 97.4, "unit": "%"},
      {"measurement": "remaining rate after correction for water, 60° C., 2 weeks preservation", "setting": "[1]", "result": 95.4, "unit": "%"},
      {"measurement": "EC50", "setting": "VPAC1R", "result": 0.072, "unit": "nM"}
    ]},
    {"molecule": "CC[C@H](C)[C@H](NC(=O)CNC(=O)[C@H](Cc1nnn[nH]1)NC(=O)[C@H](CO)NC(=O)[C@H](Cc1c[nH]cn1)NC(C)=O)C(=O)N[C@@H](Cc1ccccc1)C(=O)N[C@H](C(=O)N[C@@H](Cc1nnn[nH]1)C(=O)N[C@@H](C)C(=O)N[C@@H](Cc1ccc(O)cc1)C(=O)N[C@@H](CO)C(=O)N[C@@H](CCCNC(=N)N)C(=O)N[C@@H](Cc1ccc(O)cc1)C(=O)N[C@@H](CCCNC(=N)N)C(=O)N[C@@H](CCCCN)C(=O)N[C@@H](CCC(N)=O)C(=O)N[C@@H](CC(C)C)C(=O)N[C@@H](C)C(=O)N[C@H](C(=O)N[C@@H](CCCCN)C(=O)N[C@@H](CCCCN)C(=O)N[C@@H](Cc1ccc(O)cc1)C(=O)N[C@@H](CC(C)C)C(=O)N[C@@H](C)C(=O)N[C@@H](C)C(=O)N[C@H](C(=O)N[C@@H](CC(C)C)C(N)=O)C(C)C)C(C)C)[C@@H](C)O", "note": "[Peptide 15] (Ac-HS[Ala(1H-tetrazol-5-yl)]GIFT[Ala(1H-tetrazol-5-yl)]AYSRYRKQLAVKKYLAAVL-NH2)", "values": [
      {"measurement": "remaining rate after correction for water, 60° C., 1 week preservation", "setting": "[1]", "result": 97.3, "unit": "%"},
      {"measurement": "remaining rate after correction for water, 60° C., 2 weeks preservation", "setting": "[1]", "result": 94.9, "unit": "%"},
      {"measurement": "EC50", "setting": "PAC1R; Table 12", "result": 0.061, "unit": "nM"}
    ]},
    {"molecule": "CC[C@H](C)[C@H](NC(=O)CNC(=O)[C@H](Cc1nnn[nH]1)NC(=O)[C@H](CO)NC(=O)[C@H](Cc1c[nH]cn1)NC(C)=O)C(=O)N[C@@H](Cc1ccccc1)C(=O)N[C@H](C(=O)N[C@@H](Cc1nnn[nH]1)C(=O)N[C@@H](CO)C(=O)N[C@@H](Cc1ccc(O)cc1)C(=O)N[C@@H](CO)C(=O)N[C@@H](CCCNC(=N)N)C(=O)N[C@@H](Cc1ccc(O)cc1)C(=O)N[C@@H](CCCNC(=N)N)C(=O)N[C@@H](CCCCN)C(=O)N[C@@H](CCC(N)=O)C(=O)N[C@@H](CC(C)C)C(=O)N[C@@H](C)C(=O)N[C@@H](C)C(=O)N[C@@H](CCCCN)C(=O)N[C@@H](CCCCN)C(=O)N[C@@H](Cc1ccc(O)cc1)C(=O)N[C@@H](CC(C)C)C(=O)N[C@@H](C)C(=O)N[C@@H](C)C(=O)N[C@H](C(=O)N[C@@H](CC(C)C)C(N)=O)C(C)C)[C@@H](C)O", "note": "[Peptide 19] (Ac-HS[Ala(1H-tetrazol-5-yl)]GIFT[Ala(1H-tetrazol-5-yl)]SYSRYRKQLAAKKYLAAVL-NH2)", "values": [
      {"measurement": "remaining rate after correction for water, 60° C., 1 week preservation", "setting": "[1]", "result": 95.8, "unit": "%"},
      {"measurement": "remaining rate after correction for water, 60° C., 2 weeks preservation", "setting": "[1]", "result": 92.7, "unit": "%"},
      {"measurement": "EC50", "setting": "VPAC1R", "result": 0.044, "unit": "nM"}
    ]},
    {"molecule": "B1", "values": [
      {"measurement": "EC50 (VPAC1R), cAMP inducing effect", "setting": "VPAC1 receptor", "result": 0.089, "unit": "nM"},
      {"measurement": "EC50 (PAC1R), cAMP inducing effect", "setting": "PAC1 receptor", "result": 0.21, "unit": "nM"}
    ]}
  ]
}
